pKi: −log10 of the molar value. Where two headings read alike, the source gives them in different places.
Target: T1, unphosphorylated VEGF-R2Δ50 (FLVK) (Homo sapiens, UniProt P35968, DEL940-989/E990V)
T1 construct: VEGF-R2Δ50 contains residues 806–939 and 990–1171; made in house; host or cells: baculovirus/insect cell system
Assay: VEGF-R2 coupled spectrophotometric assay, unphosphorylated VEGF-R2Δ50 (FLVK)
Assay type: biochemical
Details: for inhibition at 0.05 µM: read-out: FLVK (% inh @ 50 nM)
Source text: VEGF-R2 Construct for Assay:
This construct determines the ability of a test compound to inhibit tyrosine kinase activity. A construct (VEGF-R2Δ50) of the cytosolic domain of human vascular endothelial growth factor receptor 2 (VEGF-R2) lacking the 50 central residues of the 68 residues of the kinase insert domain was expressed in a baculovirus/insect cell system. Of the 1356 residues of full-length VEGF-R2, VEGF-R2Δ50 contains residues 806–939 and 990–1171, and also one point mutation (E990V) within the kinase insert domain relative to wild-type VEGF-R2. Autophosphorylation of the purified construct was performed by incubation of the enzyme at a concentration of 4 μM in the presence of 3 mM ATP and 40 mM MgCl2 in 100 mM HEPES, pH 7.5, containing 5% glycerol and 5 mM DTT, at 4° C. for 2 h. […] See Parast et al., Biochemistry, 37, 16788–16801 (1998).
Coupled Spectrophotometric (FLVK-P) Assay
The production of ADP from ATP that accompanies phosphoryl transfer was coupled to oxidation of NADH using phosphoenolpyruvate (PEP) and a system having pyruvate kinase (PK) and lactic dehydrogenase (LDH). The oxidation of NADH was monitored by following the decrease of absorbance at 340 nm (e340=6.22 cm^−1 mM^−1) using a Beckman DU 650 spectrophotometer. Assay conditions for phosphorylated VEGF-R2Δ50 (indicated as FLVK-P in the tables below) were the following: 1 mM PEP; 250 μM NADH; 50 units of LDH/mL; 20 units of PK/mL; 5 mM DTT; 5.1 mM poly(E4Y1); 1 mM ATP; and 25 mM MgCl2 in 200 mM HEPES, pH 7.5. Assay conditions for unphosphorylated VEGF-R2Δ50 (indicated as FLVK in the tables) were the following: 1 mM PEP; 250 μM NADH; 50 units of LDH/mL; 20 units of PK/mL; 5 mM DTT; 20 mM poly(E4Y1); 3 mM ATP; and 60 mM MgCl2 and 2 mM MnCl2 in 200 mM HEPES, pH 7.5. Assays were initiated with 5 to 40 nM of enzyme. Ki values were determined by measuring enzyme activity in the presence of varying concentrations of test compounds. […] The binding inhibitions were fitted to equation as described by Morrison. The data were analyzed using Enzyme Kinetic and Kaleidagraph software.

[1] = 50 nM compound, unphosphorylated VEGF-R2Δ50

T1 sequence (P35968 with tags, fused parts or gaps DEL940-989/E990V limits assumed): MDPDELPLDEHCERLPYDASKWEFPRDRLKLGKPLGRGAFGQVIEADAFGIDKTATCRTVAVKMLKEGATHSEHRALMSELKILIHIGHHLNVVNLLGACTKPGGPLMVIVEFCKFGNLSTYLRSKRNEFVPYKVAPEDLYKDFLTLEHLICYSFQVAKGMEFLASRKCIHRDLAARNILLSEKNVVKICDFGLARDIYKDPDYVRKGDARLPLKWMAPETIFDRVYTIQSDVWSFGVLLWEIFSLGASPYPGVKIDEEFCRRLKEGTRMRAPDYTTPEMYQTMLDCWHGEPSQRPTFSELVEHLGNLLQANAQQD

Row | inhibition at 0.05 µM [1] | pKi (unphosphorylated VEGF-R2Δ50) | SMILES | inhibition at 0.05 µM
1 | 48% | 7.99 | CCc1c(C(=O)NC)c2ccc(Oc3ccnc4cc(C(=O)N5CC[C@@H](O)C5)sc34)cc2n1C [Example 73, 2-Ethyl-6-[2-(3-hydroxy-pyrrolidine-1-carbonyl)-thieno[3,2-b]pyridin-7-yloxy]-1-methyl-1H-indole-3-carboxylic acid methylamide] | 
2 | 36% | 8.20 | CNC(=O)c1c(C(F)(F)F)n(C)c2cc(Oc3ccnc4cc(-c5nccn5C)sc34)ccc12 [Example 76, 1-Methyl-6-[2-(1-methyl-1H-imidazol-2-yl)-thieno[3,2-b]pyridin-7-yloxy]-2-trifluoromethyl-1H-indole-3-carboxylic acid methylamide] | 
3 | 51% | 8.02 | CCc1oc2cc(Oc3ccnc4cc(C(=O)N5CCC[C@H]5COC)sc34)ccc2c1C(=O)NC [Example 96, 2-ethyl-6-(2-[(S)-2-(methoxymethyl)pyrrolidine-1-carbonyl]thieno[3,2-b]pyridin-7-yloxy)-benzofuran-3-carboxylic acid methyl amide] | 
4 | 0% |  | Cc1oc2cc(Oc3ccnc4ccsc34)ccc2c1C(=O)O [Example 100, 2-Methyl-6[thieno[3,2-b]pyridin-7-yloxy]benzofuran-3-carboxylic acid] | 
5 | 17% | 7.44 | Cc1oc2cc(Oc3ccnc4ccsc34)ccc2c1C(=O)NCc1ccncc1 [Example 107, 2-Methyl-6-[Thieno(3,2-b)pyridin-7-yloxy]benzofuran-3-carboxylic acid 2-[(4-pyridyl)-methyl] amide] | 
6 | 61% |  | Cc1oc2cc(Oc3ccnc4ccsc34)ccc2c1C(=O)NCCc1ccc(S(N)(=O)=O)cc1 [Example 108, 2-Methyl-6-(thieno[3,2-b]pyridin-7-yloxy)-benzofuran-3-carboxylic acid [2-(4-sulfamoyl-phenyl)-ethyl]-amide] | 
7 | 82% |  | Cc1oc2cc(Oc3ccnc4ccsc34)ccc2c1C(=O)NCCOC(C)C [Example 109, 2-Methyl-6-(thieno[3,2-b]pyridin-7-yloxy)-benzofuran-3-carboxylic acid (2-isopropoxy-ethyl)-amide] | 
8 | 21% |  | Cc1oc2cc(Oc3ccnc4ccsc34)ccc2c1C(=O)NCCC1CCCN1C (centres unmarked) [Example 110, 2-Methyl-6-(thieno[3,2-b]pyridin-7-yloxy)-benzofuran-3-carboxylic acid [2-(1-methyl-pyrrolidin-2-yl)-ethyl]-amide] | 
9 | 96% |  | Cc1cc(NC(=O)c2c(C)oc3cc(Oc4ccnc5ccsc45)ccc23)n[nH]1 [Example 111, 2-Methyl-6-(thieno[3,2-b]pyridin-7-yloxy)-benzofuran-3-carboxylic acid (5-methyl-1H-pyrazol-3-yl)-amide] | 

The next lines start with the molecule.

Row | SMILES | inhibition at 0.05 µM [1] | pKi (unphosphorylated VEGF-R2Δ50) | inhibition at 0.05 µM
10 | CNC(=O)c1c(C(C)C)oc2cc(Oc3ccnc4cc(C(=O)N5CC[C@@H](OC)C5)sc34)ccc12 [Example 15, 6-(2-[3-methoxypyrrolidine-1-carbonyl]thieno[3,2-b]pyridin-7-yloxy)-2-(1-methylethyl)benzofuran-3-carboxylic acid methylamide] | 13% | 7.32 | 
11 | CNC(=O)c1cn(C)c2cc(Oc3ccnc4cc(C(=O)N5CC[C@@H](O)C5)sc34)ccc12 [Example 21, 6-{2-[3-(R)-hydroxy-pyrrolidine-1-carbonyl]thieno[3,2-b]pyridin-7-yloxy}-1-methyl-1H-indole-3-carboxylic acid methylamide] | 43% | 7.88 | 
12 | CNC(=O)c1cn(C)c2cc(Oc3ccnc4cc(C(=O)N5CC[C@@H](OC)C5)sc34)ccc12 [Example 22, 6-[2-(3-methoxypyrrolidine-1-carbonyl)-thieno[3,2-b]pyridin-7-yloxy]-1-methyl-1H-indole-3-carboxylic acid methylamide] | 38% | 7.59 | 
13 | CNC(=O)c1cn(C)c2cc(Oc3ccnc4cc(-c5nccn5C)sc34)ccc12 [Example 23, 1-Methyl-6-[2-(1-methyl-1H-imidazol-2-yl)-thieno[3,2-b]pyridin-7-yloxy]-1H-indole-3-carboxylic acid methylamide] | 19% | 7.11 | 
14 | CNC(=O)c1c(C)n(C)c2cc(Oc3ccnc4cc(C(=O)N(C)CCN(C)C)sc34)ccc12 [Example 29, N-[2-(Dimethylamino)ethyl]-7-({1,2-dimethyl-3-[(methylamino)carbonyl]-1H-indol-6-yl}oxy)-N-methylthieno[3,2-b]pyridine-2-carboxamide] | 6% | 7.05 | 
15 | CNC(=O)c1c(C)n(C)c2cc(Oc3ccnc4cc(C(=O)N(C)CCO)sc34)ccc12 [Example 31] | 25% | 7.52 | 
16 | CNC(=O)c1c(C)n(C)c2cc(Oc3ccnc4cc(C(=O)N5C[C@H](OC)[C@H](OC)C5)sc34)ccc12 [Example 36, 6-[2-(3,4-Dimethoxy-pyrrolidine-1-carbonyl)-thieno[3,2-b]pyridin-7-yloxy]-1,2-dimethyl-1H-indole-3-carboxylic acid methylamide] | 41% | 7.94 | 
17 | CNC(=O)c1c(C)n(C)c2cc(Oc3ccnc4cc(-c5nc(C(C)(C)O)co5)sc34)ccc12 [Example 47, 6-{2-[4-(1-Hydroxy-1-methyl-ethyl)-oxazol-2-yl]-thieno[3,2-b]pyridin-7-yloxy}1,2-dimethyl-1H-indole-3-carboxylic acid methylamide] | 41% | 7.71 | 
18 | CNC(=O)c1c(C)n(C)c2cc(Oc3ccnc4cc(-c5ncccn5)sc34)ccc12 [Example 50, 1,2-Dimethyl-6-(2-pyrimidin-2-yl-thieno[3,2-b]pyridin-7-yloxy)-1H-indole-3-carboxylic acid methylamide] | 36% | 7.44 | 
19 | CNC(=O)c1c(C)n(C)c2cc(Oc3ccnc4cc(-c5cccc(CN(C)C)n5)sc34)ccc12 [Example 52, 6-[2-(6-Dimethylaminomethyl-pyridin-2-yl)-thieno[3,2-b]pyridin-7-yloxy]-1,2-dimethyl-1H-indole-3-carboxyllc acid methylamide] | 41% | 7.60 | 
20 | Cc1c(C(=O)NCC(C)C)c2ccc(Oc3ccnc4cc(-c5nccs5)sc34)cc2n1C [Example 67, 1,2-Dimethyl-4(2-thiazol-2-yl-thieno[3,2-b]pyridin-7-yloxy)-1 indole-3-carboxylic acid isobutyl-amide] | 58% | 7.90 | 
21 | CCC(=O)c1cc2nccc(Oc3ccc4c(C(=O)NCCCN5CCOCC5)c(C)n(C)c4c3)c2s1 [Example 68, 1,2-Dimethyl-6-(2-propionyl-thieno[3,2-b]pyridin-7-yloxy)-1H-indole-3-carboxylic acid (3-morpholin-4-yl-propyl)-amide] | 37% |  | 
22 | CCn1c(C)c(C(=O)NC)c2ccc(Oc3ccnc4cc(C(=O)N5CCC5)sc34)cc21 [Example 71, 6-[2-(Azetidine-1-carbonyl)thieno[3,2-b]pyridin-7-yloxy]-1-ethyl-2-methyl-1H-indole-3-carboxylic acid methylamide] |  |  | 5%
23 | CCn1c(C)c(C(=O)NC)c2ccc(Oc3ccnc4cc(-c5nccn5C)sc34)cc21 [Example 72, 1-Ethyl-2-methyl-6-[2-(1-methyl-1H-imidazol-2-yl)-thieno[3,2-b]pyridin-7-yloxy]-1H-indole-3-carboxylic acid methylamide] |  |  | 2%

Source: patent US7045528B2, “Benzofused heterozryl amide derivatives of thienopyridines useful as therapeutic agents, pharmaceutical compositions including the same, and methods for their use” (Agouron Pharmaceuticals, Inc., priority 2002, dated 2006)
